This is an account of results in ChEMBL document CHEMBL5380860, “Design, Synthesis, and Antitumor Activity of Potent and Selective EGFR L858R/T790M Inhibitors and Identification of a Combination Therapy to Overcome Acquired Resistance in Models of Non-small-cell Lung Cancer” (J Med Chem, 2023).

Some results are limits rather than exact numbers.

For one data set, the system named is NCI-H1975. Description: Antiproliferative activity against human NCI-H1975 cells harboring EGFR L858R/T790M mutant assessed as reduction in cell viability measured after 72 hrs by MTT assay. Type of data set: functional, cell-based. The note with it: NCI-H1975, 72 h. (In general: Tetrazolium assays rely on reduction of a dye to a coloured formazan, in cell work by metabolically active cells.)

Data set [1] can be described thus: Cytotoxicity against human A-431 cells harboring wild type EGFR assessed as reduction in cell viability measured after 72 hrs by MTT assay. The class given is toxicity, cell-based.
The next data set deals with HCC827. Description: Antiproliferative activity against human HCC827 cells harboring EGFR exon del 19 mutant assessed as reduction in cell viability measured after 72 hrs by MTT assay. The note with it: HCC827, 72 h. Type of data set: functional, cell-based.
Data set [2] in a line: Cytotoxicity against human A549 cells harboring wild type EGFR assessed as reduction in cell viability measured after 72 hrs by MTT assay. Type of data set: toxicity, cell-based.
Data set [3] in a line: Selectivity ratio of IC50 for cytotoxicity against human A549 cells harboring wild type EGFR to IC50 for antiproliferative activity against human NCI-H1975 cells harboring EGFR L858R/T790M mutant. The conditions noted are these: read-out: Ratio IC50. The class given is toxicity, cell-based.
Data set [4] in a line: Selectivity ratio of IC50 for cytotoxicity against human A-431 cells harboring wild type EGFR to IC50 for antiproliferative activity against human NCI-H1975 cells harboring EGFR L858R/T790M mutant. The conditions noted are these: read-out: Ratio IC50. The class given is toxicity, cell-based.
The target in data set [5] is Epidermal growth factor receptor (Homo sapiens, UniProt P00533). Briefly: Inhibition of human wild type partial length EGFR (R669 to V1011 residues) expressed in bacterial expression system by KINOMEscan analysis. Type of data set: toxicity.
Sequence of Epidermal growth factor receptor (Homo sapiens, UniProt P00533) (P00533 whole entry, the tested form may be a part): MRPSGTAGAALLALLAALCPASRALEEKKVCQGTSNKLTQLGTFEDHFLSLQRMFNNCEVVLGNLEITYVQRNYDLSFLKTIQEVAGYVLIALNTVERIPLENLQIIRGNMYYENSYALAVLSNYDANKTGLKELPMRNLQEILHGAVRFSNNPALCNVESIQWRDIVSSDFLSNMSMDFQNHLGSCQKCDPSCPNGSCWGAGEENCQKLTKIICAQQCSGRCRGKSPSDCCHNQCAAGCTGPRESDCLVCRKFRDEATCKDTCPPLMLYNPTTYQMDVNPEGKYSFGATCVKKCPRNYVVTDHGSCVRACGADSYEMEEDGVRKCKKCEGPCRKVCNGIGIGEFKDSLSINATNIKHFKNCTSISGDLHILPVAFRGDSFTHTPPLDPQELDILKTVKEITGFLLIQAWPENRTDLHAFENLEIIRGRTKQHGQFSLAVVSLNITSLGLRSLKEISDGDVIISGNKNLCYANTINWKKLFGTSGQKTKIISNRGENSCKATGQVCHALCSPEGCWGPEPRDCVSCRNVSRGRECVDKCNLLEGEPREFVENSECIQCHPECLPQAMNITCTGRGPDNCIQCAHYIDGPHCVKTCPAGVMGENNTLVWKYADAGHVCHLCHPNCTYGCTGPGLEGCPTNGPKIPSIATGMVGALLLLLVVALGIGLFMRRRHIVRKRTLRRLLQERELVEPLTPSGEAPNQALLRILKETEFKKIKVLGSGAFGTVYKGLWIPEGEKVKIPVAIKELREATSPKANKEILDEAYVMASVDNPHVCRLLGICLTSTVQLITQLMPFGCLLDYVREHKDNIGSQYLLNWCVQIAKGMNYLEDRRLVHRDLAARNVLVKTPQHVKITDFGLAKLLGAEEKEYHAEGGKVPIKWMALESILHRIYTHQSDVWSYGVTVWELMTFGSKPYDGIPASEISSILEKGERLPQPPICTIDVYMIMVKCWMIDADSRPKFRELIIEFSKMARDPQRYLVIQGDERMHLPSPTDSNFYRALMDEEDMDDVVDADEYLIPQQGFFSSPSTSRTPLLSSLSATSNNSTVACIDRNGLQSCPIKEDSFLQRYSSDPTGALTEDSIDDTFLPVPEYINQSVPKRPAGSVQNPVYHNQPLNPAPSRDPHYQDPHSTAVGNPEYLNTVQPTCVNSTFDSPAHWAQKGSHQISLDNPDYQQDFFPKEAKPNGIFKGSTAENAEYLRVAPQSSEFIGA
For data set [6], the target named is Epidermal growth factor receptor (Homo sapiens, UniProt P00533, L858R/T790M). Description: Inhibition of human partial length EGFR (R669 to V1011 residues) L858R/T790M mutant expressed in mammalian expression system by KINOMEscan analysis.
Sequence of Epidermal growth factor receptor (Homo sapiens, UniProt P00533, L858R/T790M) (P00533 25-1210 T790M/L858R limits assumed): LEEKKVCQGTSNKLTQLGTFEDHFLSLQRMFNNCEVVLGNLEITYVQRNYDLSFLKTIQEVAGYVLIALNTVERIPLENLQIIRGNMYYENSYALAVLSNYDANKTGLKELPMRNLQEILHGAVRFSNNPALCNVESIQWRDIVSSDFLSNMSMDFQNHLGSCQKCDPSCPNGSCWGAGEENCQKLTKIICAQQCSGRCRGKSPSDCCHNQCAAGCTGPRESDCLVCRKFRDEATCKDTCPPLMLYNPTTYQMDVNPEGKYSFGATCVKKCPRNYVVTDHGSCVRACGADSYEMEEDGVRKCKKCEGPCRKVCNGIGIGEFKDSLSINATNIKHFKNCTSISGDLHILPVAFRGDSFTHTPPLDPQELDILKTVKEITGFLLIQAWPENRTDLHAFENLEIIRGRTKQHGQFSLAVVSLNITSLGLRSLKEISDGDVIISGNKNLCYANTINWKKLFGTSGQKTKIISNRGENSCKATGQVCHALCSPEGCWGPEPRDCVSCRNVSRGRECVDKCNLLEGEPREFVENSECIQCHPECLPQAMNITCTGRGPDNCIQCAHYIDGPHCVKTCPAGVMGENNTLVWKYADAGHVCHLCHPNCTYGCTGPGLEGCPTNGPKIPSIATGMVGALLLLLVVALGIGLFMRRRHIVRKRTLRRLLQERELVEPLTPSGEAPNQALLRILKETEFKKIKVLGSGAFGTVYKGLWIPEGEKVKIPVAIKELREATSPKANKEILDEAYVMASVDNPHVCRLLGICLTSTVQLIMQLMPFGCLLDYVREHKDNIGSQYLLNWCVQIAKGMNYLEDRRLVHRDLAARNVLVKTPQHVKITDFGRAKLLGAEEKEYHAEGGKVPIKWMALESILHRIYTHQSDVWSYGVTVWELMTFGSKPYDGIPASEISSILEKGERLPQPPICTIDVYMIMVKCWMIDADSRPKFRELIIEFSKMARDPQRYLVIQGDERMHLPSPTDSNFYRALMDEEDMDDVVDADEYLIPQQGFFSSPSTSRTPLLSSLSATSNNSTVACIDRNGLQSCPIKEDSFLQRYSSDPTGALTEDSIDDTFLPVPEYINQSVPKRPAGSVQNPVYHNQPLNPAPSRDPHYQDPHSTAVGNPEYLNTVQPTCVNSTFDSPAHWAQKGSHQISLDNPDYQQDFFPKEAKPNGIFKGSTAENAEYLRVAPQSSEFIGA

On to `C=CC(=O)Nc1cccc(Nc2nc(Nc3ccc(N4CCN(CC)CC4)cc3)nc3ccc(Cl)cc23)c1`, for which the IC50 is 21 nM in the data set with NCI-H1975 and 12 nM in the data set on HCC827. The IC50 at 72 h in data set [1] was 735 nM; in data set [2] it was 672 nM. Moreover, the selectivity ratio in data set [3] was found to be 32; in data set [4] it was 35.
`C=CC(=O)Nc1cccc(Nc2nc(Nc3ccc(N4CCN(CC)CC4)cc3)nc3ccc(F)cc23)c1`: the IC50 worked out at 25 nM with NCI-H1975 and 11 nM in the data set on HCC827. Besides, the IC50 at 72 h in data set [1] was 1550 nM; in data set [2] it was 1520 nM. Further, the selectivity ratio in data set [3] came to 60; in data set [4] it was 62.
Consider `C=CC(=O)Nc1cccc(Nc2nc(Nc3ccc(N(C)C)cc3)nc3ccc(Cl)cc23)c1`, for which the IC50 in the data set on NCI-H1975 is 2300 nM; in data set [5], more than 10000 nM; in data set [6] it was 1800 nM. In data set [2], the IC50 at 72 h was more than 10000 nM.
Turning to `C/C=C/C(=O)Nc1cccc(Nc2nc(Nc3ccc(N4CCN(C)CC4)cc3)nc3ccc(Cl)cc23)c1`, the concentration for half-maximal inhibition (IC50) in the data set on NCI-H1975 was 231 nM; in the data set on HCC827 it was 221 nM. In addition, the IC50 at 72 h in data set [1] was found to be 4530 nM; in data set [2], 3650 nM.
`C=CC(=O)Nc1cccc(Nc2nc(Nc3ccc(N4CCN(C)CC4)c(F)c3)nc3ccc(Cl)cc23)c1`: the values for the IC50 with NCI-H1975 and with HCC827 were 45 nM and 19 nM, respectively. Also, the IC50 at 72 h in data set [1] came to 2310 nM; in data set [2], 1500 nM.
As for `C=CC(=O)Nc1cccc(Nc2nc(Nc3ccc(N4CCC(N5CCOCC5)CC4)cc3)nc3ccc(Cl)cc23)c1`, the results for the IC50 in the data set with NCI-H1975 and with HCC827 were 7650 nM and 5720 nM, respectively. In addition, the IC50 at 72 h in data set [1] and in data set [2] was more than 10000 nM each time.
`C=CC(=O)Nc1cccc(Nc2nc(Nc3ccc(C4CCN(C)CC4)cc3)nc3ccc(F)cc23)c1`: the IC50 with NCI-H1975 worked out at 1090 nM; with HCC827, 1850 nM. Moreover, the 50% inhibitory concentration (IC50) at 72 h in data set [1] was more than 10000 nM; in data set [2], 5860 nM.
Turning to `C=CC(=O)Nc1cccc(Nc2nc(Nc3ccc(N4CCN(C)CC4)c(F)c3)nc3ccc(F)cc23)c1`, the IC50 in the data set on NCI-H1975 came to 35 nM; in the data set on HCC827, 20 nM. Moreover, the IC50 at 72 h in data set [1] is 1280 nM; in data set [2] it was 2470 nM.
For `C=CC(=O)Nc1cccc(Nc2nc(Nc3ccc(N4CCN(C)CC4)cc3)nc3cc(OC)c(OC)cc23)c1` the same measures were 4200 nM, 4230 nM, more than 10000 nM and more than 10000 nM.
In the case of `C=CC(=O)Nc1cccc(Nc2nc(Nc3ccc(N4CCN(C)CC4)cc3)nc3ccc(Cl)cc23)c1`, the IC50 in the data set with NCI-H1975 was 17 nM; in the data set with HCC827, 13 nM. Moreover, the IC50 at 72 h in data set [1] was 1240 nM; in data set [2], 816 nM. Further, the selectivity ratio in data set [3] amounted to 48; in data set [4], 73.
Turning to `C=CC(=O)Nc1cccc(Nc2nc(Nc3ccc(C4CCN(C)CC4)cc3)nc3ccc(Cl)cc23)c1`, the results for the 50% inhibitory concentration (IC50) in the data set with NCI-H1975 and with HCC827 were 3410 nM and 2700 nM, respectively. Besides, the IC50 at 72 h in data set [1] and in data set [2] was more than 10000 nM each time.
Regarding `C=CC(=O)Nc1cccc(Nc2nc(Nc3ccc(N4CCN(C)CC4)cc3)nc3c2CCCC3)c1`, the IC50 with NCI-H1975 came to 3420 nM; with HCC827, 2310 nM. The IC50 at 72 h turned out to be 4560 nM in data set [1] and 5640 nM in data set [2].
The like results for `C=CC(=O)Nc1cccc(Nc2nc(Nc3ccc(N4CCN(C)CC4)cc3)nc3cccc(Cl)c23)c1` were, in that order, 1020 nM, 987 nM, 4580 nM and 3880 nM.
As to `C=CC(=O)Nc1cccc(Nc2nc(Nc3ccc(N4CCN(C)CC4)cc3)nc3ccc(OC)cc23)c1`, the IC50 with NCI-H1975 is 2980 nM; in the data set with HCC827 it was 1760 nM. Besides, the IC50 at 72 h in data set [1] came to 4820 nM; in data set [2], 3990 nM.
For `C=CC(=O)Nc1cccc(Nc2nc(Nc3ccc(N4CCOCC4)cc3)nc3ccc(Cl)cc23)c1` the same measures were 8560 nM, 8860 nM, more than 10000 nM and more than 10000 nM.
On to `C=CC(=O)Nc1ccccc1Nc1nc(Nc2ccc(N3CCN(C)CC3)cc2)nc2ccc(Cl)cc12`, for which the IC50 with NCI-H1975 was found to be 1320 nM; with HCC827, 1020 nM. Moreover, the IC50 at 72 h in data set [1] and in data set [2] was more than 10000 nM throughout.

In general, IC50 refers to the concentration that gives 50% inhibition.
